Consider 18 compounds from patent publication US20230346820A1, “METHODS AND COMPOSITIONS FOR THE TREATMENT OF SARS-COV-2” (priority 2020, published 2023).

Structures can show the parent of a compound that is named as a salt. Where two headings read alike, the source gives them in different places. Residues, ends and D or L forms follow the SMILES beside them. *: point of attachment. Cbz = O=C(OCc1ccccc1)*; CHN2 = [N-]=[N+]=C*

Data set [1] deals with SARS-CoV-2. As to the kind of experiment: microbe, parasite or virus in culture.
Data set [2] deals with SARS-CoV-2.
The nature of the next data set: in vitro. Conditions: human.
Data set [3] concerns SARS-CoV-2. Conditions: read-out: Calu-3 CoV-2 EC50; Table 4; aggregated data, Geomean, n = 3; 48 h.
Setting [4] is: Severe acute respiratory syndrome coronavirus 2, HeLa-ACE2, read-out: SARS-CoV-2 EC50.
[5] abbreviates: Severe acute respiratory syndrome coronavirus 2, HeLa-ACE2, 24 h, read-out: CoV-2 EC50 [μM] (Geomeans, n ≥ 2).
The mark [6] stands for this setting: CC50 [μM] (Geomeans, n ≥ 2 except where indicated: *n = 1).

For orientation: EC50 means the concentration needed to bring the measured effect to its halfway point. In the case of `Cc1c(-c2ccc(O)cc2)n(Cc2ccc(OCCN3CCCCCC3)cc2)c2ccc(O)cc12` [bazedoxifene], the half-maximal effective concentration (EC50) in the data set on SARS-CoV-2 [1] (setting [4]) turned out to be 3.47 µM.
For `OC(CNCC(O)C1CCc2cc(F)ccc2O1)C1CCc2cc(F)ccc2O1` (stereo not drawn) [nebivolol hydrochloride], the “HeLa-ACE2 CC50/CoV-2 EC50” value in the data set with SARS-CoV-2 [2] is above 3.75. Further, in the data set with SARS-CoV-2 [1] (setting [5]), the EC50 is 2.96 µM. This compound also had a CC50 in “in vitro” (setting [6]) above 11.1 µM.
In the case of `CNC(=O)c1cc(Oc2ccc(NC(=O)Nc3ccc(Cl)c(C(F)(F)F)c3)cc2)ccn1` [Sorafenib], the “HeLa-ACE2 CC50/CoV-2 EC50” value in the data set with SARS-CoV-2 [2] is listed as above 1.52. The EC50 in the data set on SARS-CoV-2 [1] (setting [5]) was above 5.67 µM. The same compound gave a CC50 in “in vitro” (setting [6]) above 8.65 µM.
For `O=C(CCCN1CCN(c2ccc(F)cc2)CC1)NC1c2ccccc2CSc2ccccc21` (stereo not drawn) [MONATEPIL], in the data set with SARS-CoV-2 [2], the “HeLa-ACE2 CC50/CoV-2 EC50” value is reported as above 5.01. Further, in the data set on SARS-CoV-2 [1] (setting [5]), the EC50 was above 7.79 µM. This compound also gave a CC50 in “in vitro” (setting [6]) above 39 µM.
With `CN1[C@@H]2CC[C@H]1C[C@@H](N1Cc3ccc4ccccc4c3C1=O)C2` [CR-3124], in the data set on SARS-CoV-2 [2], the “HeLa-ACE2 CC50/CoV-2 EC50” value was above 6.67. In addition, in the data set “in vitro” (setting [6]), the CC50 is above 39.8 µM.
For the compound `CC(C)CC(NC(=O)OCc1ccccc1)C(=O)NC(C(=O)NCC(=O)C=[N+]=[N-])C(C)C` (stereo not drawn) [Z LVG CHN2] (Cbz-Leu-Val-Gly-CHN2; configuration not given here), in the data set on SARS-CoV-2 [2], the “HeLa-ACE2 CC50/CoV-2 EC50” value is above 554.29. Also, the EC50 in the data set on SARS-CoV-2 [1] (setting [5]) amounted to 0.072 µM. In the data set “in vitro” (setting [6]), this compound displayed a CC50 above 39.8 µM.
`CCCCCCOC(=O)NC(=N)c1ccc(NCc2nc3cc(C(=O)N(CCC(=O)OCC)c4ccccn4)ccc3n2C)cc1` [Dabigatranetexilate mesilate]: the “HeLa-ACE2 CC50/CoV-2 EC50” value in the data set on SARS-CoV-2 [2] is above 6.50. The same compound had a CC50 in the data set “in vitro” (setting [6]) above 26.5 µM.
For `N#Cc1ccc2c(c1)[C@H]1CN(CCCCNC(=O)c3ccc(-c4ccccc4)cc3)C[C@@H]1CO2` [S-33084], the “HeLa-ACE2 CC50/CoV-2 EC50” value with SARS-CoV-2 [2] is above 6.34. For the same compound, the EC50 in the data set with SARS-CoV-2 [1] (setting [5]) worked out at 3.91 µM. The compound further returned a CC50 in the data set “in vitro” (setting [6]) above 24.8 µM.
As to `COC(CNCC(C)C)COc1c(C)csc1C(=O)CCc1ccccc1` (stereo not drawn) [LG-6-101], the “HeLa-ACE2 CC50/CoV-2 EC50” value in the data set with SARS-CoV-2 [2] came to 10.3. Moreover, the EC50 with SARS-CoV-2 [1] (setting [5]) was determined as 3.46 µM. Moreover, the CC50 in the data set “in vitro” (setting [6]) was above 35.6 µM.
Turning to `Cc1cccc(/C=N/Nc2cc(N3CCOCC3)n3nc(-c4ccncc4)cc3n2)c1` [APY0201], in the data set on SARS-CoV-2 [2], the “HeLa-ACE2 CC50/CoV-2 EC50” value is reported as above 2853.95. Also, in the data set on SARS-CoV-2 [1] (setting [5]), the EC50 is 0.014 µM. In “in vitro” (setting [6]), this compound had a CC50 above 39.4 µM.
`CN(C)CC1=C[CH]([Fe][CH]2C=CC=C2)C=C1CNc1ccnc2cc(Cl)ccc12` (stereo not drawn) [Ferroquine]: in the data set on SARS-CoV-2 [2], the “HeLa-ACE2 CC50/CoV-2 EC50” value turned out to be 10.29. In the data set “in vitro” (setting [6]), the CC50 is 13.4 µM.
In the case of `O=C(c1ccc(OCCN2CCCCC2)cc1)c1c(-c2ccc(O)cc2)sc2cc(O)ccc12` [raloxifene], in the data set on SARS-CoV-2 [1] (setting [4]), the EC50 was found to be 4.13 µM.
In “in vitro” (setting [6]), `CN1C[C@@H]2c3ccccc3Oc3ccc(Cl)cc3[C@H]2C1` (racemic) [Asenapine maleate] had a CC50 above 35.6 µM.
`CCCCN1CC[C@H](c2ccc(N(C)C)cc2)[C@@H](COc2ccc(C(F)(F)F)cc2)C1` [NNC 090026]: the “HeLa-ACE2 CC50/CoV-2 EC50” value in the data set on SARS-CoV-2 [2] was above 5.59. Moreover, the EC50 was 2.75 µM in the data set with SARS-CoV-2 [1] (setting [5]) and 2.75 µM in the data set on SARS-CoV-2 [1] (Severe acute respiratory syndrome coronavirus 2, HeLa-ACE2, read-out: SARS CoV-2 EC50 (μM)). For the same compound, the CC50 in “in vitro” (setting [6]) and in “in vitro” (Uninfected HeLa-ACE2 CC50 (μM)) was above 15.4 µM in each case.
Take `CCN(CC)Cc1cc(Nc2ccnc3cc(Cl)ccc23)ccc1O` [Amodioaquine]: in the data set on SARS-CoV-2 [2], the “HeLa-ACE2 CC50/CoV-2 EC50” value was above 33.48. In addition, the EC50 in the data set with SARS-CoV-2 [1] (setting [5]) was 1.19 µM. The compound also gave a CC50 in “in vitro” (setting [6]) above 39.8 µM.
On the same counts, the results for `Nc1ncnc2c1nc(Cl)n2[C@@H]1O[C@H](CO)[C@@H](O)[C@H]1O` [8-Chloroadenosine] are above 12.80, 0.927 µM and above 11.9 µM.
`COc1ccc(C[C@H]2NC[C@H](O)[C@H]2OC(C)=O)cc1` [ANISOMYCIN]: the EC50 was found to be 0.066 µM in the data set with SARS-CoV-2 [2] (read-out: HeLa-ACE2 CoV-2 EC50, Table 4, aggregated data, Geomean, n = 3) and 0.127 µM in the data set on SARS-CoV-2 [3].
For `COc1ccc2cc1Oc1ccc(cc1)C[C@H]1c3c(cc4c(c3Oc3cc5c(cc3OC)CCN(C)[C@@H]5C2)OCO4)CCN1C` [Cepharanthine], in the data set on SARS-CoV-2 [2], the “HeLa-ACE2 CC50/CoV-2 EC50” value is listed as above 25.76. For the same compound, the CC50 in “in vitro” (setting [6]) was above 25.4 µM.
